Measurements reported in patent US9878007B2, “Syndecan peptides and polypeptides as inhibitors of vascular endothelial growth factor receptor-2 (VEGFR2) and very late antigen-4 (VLA-4)” (Wisconsin Alumni Research Foundation, priority 2015, dated 2018).

How the values were obtained:
[1] = test system: P3x63Ag8 mouse myeloma cells; assay: Invasion of P3x63Ag8 myeloma cells through FN-coated filters; format: cell-based; settings: 16 hr
Method: (§1) FIG. 7A-B. S1ED^214-236, specific for VEGFR2 coupling to VLA-4, blocks myeloma cell invasion but not adhesion. (FIG. 7A) P3x63Ag8 mouse myeloma cells are plating on the VLA-4 ligand FN in the presence or absence of 30 uM S1ED^210-233 (SEQ ID No: 4) or S1ED^214-236 (SEQ ID No: 7) for 2.5 hr. (FIG. 7B) P3x63Ag8 myeloma cells are plated on FN-coated filters in the presence of HPSE inhibitor OGT2115, VLA-4 blocking antibody P1H4, VEGFR2 inhibitor Vandetanib or S1ED^210-233 or S1ED^214-236 and allowed to migrate through the filter for 16 hr. Small black dots are the pores in the filter.
The bottom chambers of Transwell filter chambers (8 μm pores; Corning) were coated with 40 μg/ml of FN. Cells (5×10^5 in 0.2 ml plating medium) were placed in the upper chamber and incubated for 16 hr at 37° C. in the CO2 incubator. After incubation, cells in the upper chamber were removed and cells on the bottom side of the filter were fixed in 4% paraformaldehyde (PFA) and stained with 0.1% Crystal Violet before imaging. Cells from at least five random fields were counted.

[2] = test system: P3x63Ag8 mouse myeloma cells; assay: Adhesion of P3x63Ag8 myeloma cells to FN; format: cell-based; settings: 30 uM peptide, 2.5 hr
Method: as §1
Nitrocellulose-coated slides were coated for 2 hr at 37° C. with 40 μg/ml FN (kindly provided by Dr. Donna Peters, University of Wisconsin-Madison) or 5 μg/ml recombinant VCAM-1/Fc chimera (R&D Systems) in calcium and magnesium-free PBS (CMF-PBS; 135 mM NaCl, 2.7 mM KCl, 10.2 mM Na2HPO4-7H20 and 1.75 mM KH2PO4, pH7.4). Slides were blocked for 1 hr at 37° C. with RPMI 1640 containing 1% heat-denatured BSA (plating medium). Cells in plating medium were allowed to attach and spread for 2.5 hr at 37° C. Slides were fixed in 4% EM grade paraformaldehyde (Electron Microscopy Sciences) in CMF-PBS and labeled for 30 min in 0.13 μM rhodamine phalloidin (Invitrogen) in CMF-PBS. Coverslips were mounted in non-fluorescing mounting medium (Immumount; Thermo Shandon) and allowed to dry. […]

Row | Compound | invasion / migration of P3X cells through FN-coated filters [1] | adhesion of P3X cells to FN [2]
1 | O=C(O)Cc1ccc2oc(-c3ccc(NC(=O)/C=C/c4ccc(Br)cc4)c(F)c3)nc2c1 [OGT2115, reference compound] | Cell migration is only observed in the untreated controls | 
2 | S1ED^214-236: syndecan-1 ectodomain peptide, residues 214-236 (SEQ ID NO: 7) (ETSGENTAVVAVEPDRRNQSPVD) | blocked by either peptide | without effect
